Experimental data: ChEMBL document CHEMBL1201862, “PubChem BioAssay data set” (2004)
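How tested: cells in 96-well plates exposed to compound for 48 hours at five concentrations. The concentration for 50% growth inhibition is given as GI50.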 Calls of active or inactive are those of the source. Cut-off read from the data, not from the text of the source: active = GI50 up to about 1.1 µM and inactive = higher.

Key:
Assay in all cases: DTP human tumour cell line panel, 48 h
NCI-H23 = system: NCI-H23
U-251 = system: U-251
786-0 = system: 786-0
COLO 205 = system: COLO 205
NCI-H522 = system: NCI-H522
MOLT-4 = system: MOLT-4
KM12 = system: KM12
SN12C = system: SN12C
OVCAR-8 = system: OVCAR-8
UO-31 = system: UO-31
OVCAR-5 = system: OVCAR-5
HCT-116 = system: HCT-116
T47D = system: T47D
SNB-19 = system: SNB-19
M14 = system: M14
UACC-257 = system: UACC-257
MDA-MB-231 = system: MDA-MB-231
HCT-15 = system: HCT-15
RXF 393 = system: RXF 393

Compound	GI50 (NCI-H23)	GI50 (U-251)	GI50 (786-0)	GI50 (COLO 205)	GI50 (NCI-H522)	GI50 (MOLT-4)	GI50 (KM12)	GI50 (SN12C)	GI50 (OVCAR-8)	GI50 (UO-31)	GI50 (OVCAR-5)	GI50 (HCT-116)	GI50 (T47D)	GI50 (SNB-19)	GI50 (M14)	GI50 (UACC-257)	GI50 (MDA-MB-231)	GI50 (HCT-15)	GI50 (RXF 393)
CCCCC/C=C1\CC(CO)(COC(=O)CC(C(C)C)C(C)C)OC1=O (centres undefined)	17.5 µM (inactive)	14.5 µM (inactive)	12.1 µM (inactive)	3.04 µM (inactive)	17.8 µM (inactive)	15.2 µM (inactive)	11.4 µM (inactive)	16.1 µM (inactive)	18.2 µM (inactive)	13.7 µM (inactive)	12.7 µM (inactive)	18.7 µM (inactive)	23.1 µM (inactive)	15 µM (inactive)	14.6 µM (inactive)	21.1 µM (inactive)	17.9 µM (inactive)	19.9 µM	17.9 µM (inactive)
Oc1ccc(SCc2ccc(NCc3ccccc3)cc2)cc1	24.7 µM (inactive)	24.4 µM (inactive)	0.869 µM (active)	35.4 µM (inactive)	20 µM (inactive)	11.4 µM (inactive)	29.2 µM (inactive)	24.5 µM (inactive)	37.8 µM (inactive)	14.3 µM (inactive)	27.2 µM (inactive)	46.6 µM (inactive)	14.7 µM (inactive)	23.9 µM (inactive)	19.4 µM (inactive)	29.9 µM (inactive)	39.9 µM (inactive)	8.97 µM	19.9 µM (inactive)
Cc1nc2ccccc2n1Cc1ccc(NC(=S)NC2CCCCC2)cc1	17.5 µM (inactive)	32.6 µM (inactive)	36.9 µM (inactive)	31.1 µM (inactive)	8.34 µM (inactive)	5.36 µM (inactive)	24.3 µM (inactive)	7.03 µM (inactive)	30.9 µM (inactive)	41 µM (inactive)	> 100 µM (inactive)	34.9 µM (inactive)	5.74 µM (inactive)	32.8 µM (inactive)	30.1 µM (inactive)	13.5 µM (inactive)	38.1 µM (inactive)	8.95 µM	23.8 µM (inactive)
CCOC(=O)C(Cc1cccn1C(=O)OC(C)(C)C)[N+](=O)[O-] (centres undefined)	34.8 µM (inactive)	20.8 µM (inactive)	21.9 µM (inactive)	20.8 µM (inactive)	19.6 µM (inactive)	20 µM (inactive)	22.8 µM (inactive)	23.9 µM (inactive)	31.7 µM (inactive)	21.2 µM (inactive)	23.8 µM (inactive)	20.9 µM (inactive)	33.4 µM (inactive)	25.2 µM (inactive)	19.2 µM (inactive)	28.3 µM (inactive)	19 µM (inactive)	24.3 µM	17.6 µM (inactive)
O=[As](O)(O)c1ccc(NCc2ccccc2)cc1	92.9 µM (inactive)	> 100 µM (inactive)	> 100 µM (inactive)	> 100 µM (inactive)	76.9 µM (inactive)	> 100 µM (inactive)	> 100 µM (inactive)	> 100 µM (inactive)	> 100 µM (inactive)	> 100 µM (inactive)	> 100 µM (inactive)	> 100 µM (inactive)	> 100 µM (inactive)	> 100 µM (inactive)	> 100 µM (inactive)	> 100 µM (inactive)	> 100 µM (inactive)	> 100 µM	> 100 µM (inactive)
CCOn1cc(C[C@@]2(O)C(=O)OC3[C@@H](O)CO[C@@]32O)c2ccccc21 (some centres undefined)	> 100 µM (inactive)	> 100 µM (inactive)	94.4 µM (inactive)	> 100 µM (inactive)	> 100 µM (inactive)	> 100 µM (inactive)	> 100 µM (inactive)	> 100 µM (inactive)	> 100 µM (inactive)	> 100 µM (inactive)	> 100 µM (inactive)	> 100 µM (inactive)	> 100 µM (inactive)	> 100 µM (inactive)	> 100 µM (inactive)	> 100 µM (inactive)	> 100 µM (inactive)	> 100 µM	> 100 µM (inactive)
C/C=C/[C@H]1O[C@@](O)([C@@H](C)[C@H](O)[C@H](C)[C@H]2OC(=O)/C(OC)=C/C(C)=C/[C@@H](C)[C@@H](O)[C@@H](CC)[C@@H](O)[C@H](C)C/C(C)=C/C=C/[C@@H]2OC)C[C@H](OC2CC(O)C(OC(N)=O)C(C)O2)[C@@H]1C (some centres undefined)	7.13 µM (inactive)	< 0.0281 µM (active)	0.0183 µM (active)	0.0334 µM (active)	0.0399 µM (active)	< 0.01 µM (active)	< 0.0163 µM (active)	5.65 µM (inactive)	0.0474 µM (active)	0.0479 µM (active)	11.9 µM (inactive)	0.017 µM (active)	0.0333 µM (active)	8.22 µM (inactive)	< 0.0161 µM (active)	0.0641 µM (active)	0.678 µM (active)	0.0426 µM	8.87 µM (inactive)
CC(C)C(/C=C/c1ccccc1)=N\NC(=S)NN	> 77.3 µM (inactive)	> 67.9 µM (inactive)	56.1 µM (inactive)	55.1 µM (inactive)	16.7 µM (inactive)	12.7 µM (inactive)	> 86.1 µM (inactive)	> 100 µM (inactive)	45.2 µM (inactive)	32.3 µM (inactive)	> 100 µM (inactive)	31.5 µM (inactive)	47 µM (inactive)	> 100 µM (inactive)	> 100 µM (inactive)	> 100 µM (inactive)	> 100 µM (inactive)	31.6 µM	99.8 µM (inactive)
NC1=NCCN1CC(=O)O [CYCLOCREATINE]	> 1000 µM (inactive)	> 1000 µM (inactive)	> 1000 µM (inactive)	> 1000 µM (inactive)	> 10000 µM (inactive)	> 1000 µM (inactive)	> 10000 µM (inactive)	> 1000 µM (inactive)	> 1000 µM (inactive)	> 1000 µM (inactive)	> 1000 µM (inactive)	> 1000 µM (inactive)	> 1000 µM (inactive)	> 1000 µM (inactive)	> 1000 µM (inactive)	> 1000 µM (inactive)	> 1000 µM (inactive)	> 1000 µM	> 1000 µM (inactive)
Cc1c(/C=N/NC(=S)Nc2ccc(Cl)cc2)c(=O)n(-c2ccccc2)n1C	24.8 µM (inactive)	15.5 µM (inactive)	16.3 µM (inactive)	> 71.1 µM (inactive)	7.08 µM (inactive)	> 60.8 µM (inactive)	> 47.6 µM (inactive)	> 82.6 µM (inactive)	24.9 µM (inactive)	32.1 µM (inactive)	> 56.5 µM (inactive)	24.9 µM (inactive)	46.6 µM (inactive)	27.9 µM (inactive)	> 62.8 µM (inactive)	> 83.6 µM (inactive)	0.637 µM (active)	17.9 µM	14.8 µM (inactive)
CCOC(=O)Oc1cc2c(c(OC)c1OC)-c1ccc(SC)c(=O)cc1C(NC(=O)C(F)(F)F)CC2 (centres undefined)	0.0209 µM (active)	0.00145 µM (active)	0.0017 µM (active)	0.0577 µM (active)	< 0.001 µM (active)	0.00117 µM (active)	0.00258 µM (active)	0.00199 µM (active)	0.0015 µM (active)	0.244 µM (active)	0.1 µM (active)	< 0.001 µM (active)	8.97 µM (inactive)	0.00316 µM (active)	< 0.001 µM (active)	0.00223 µM (active)	0.00172 µM (active)	0.00221 µM	< 0.001 µM (active)
